Measurements: patent US20110045083A1, “USE LARCH WOOD FOR TREATING INFLAMMATION” (priority 2007, published 2011)
“And” between values parts separate entries of the source, which are not always exact repeats. Identical values can stand only once. Like-named read-outs stand apart in the source and are kept apart here. Each block holds one molecule with its values, some of them ahead of it.

How the values were obtained:
[1] = system: 5-LOX mediated LT biosynthesis; assay: LT biosynthesis inhibition assay in activated neutrophile granulocytes, LTB4 EIA; assay type: cell-based, human
Protocol: 1.) LT biosynthesis inhibition assay
The assay was performed as described in [Michael Adams, Olaf Kunert, Ernst Haslinger, Rudolf Bauer: Inhibition of Leukotriene Biosynthesis by Quinolone Alkaloids from the Fruits of Evodia Rutaecarpa; Planta med. 2004 (70): 904-908] with some modifications.
Principle: Activated neutrophile granulocytes with 5-LOX activity are incubated with a defined concentration of test sample and arachidonic acid. After stopping the enzymatic reaction by addition of formic acid and centrifugation to remove cellular fragments, the produced LTB4 is quantified in the supernatant by means of an LTB4 EIA kit.
Isolation of human neutrophile granulocytes: 30 ml of venous human blood from healthy voluntary donors are collected with a Vacutainer™ (BD, Plymouth, UK) system containing a 0.219 M pre-analytical citric acid solution. The blood is immediately transferred to a falcon tube containing 20 ml of sedimentation solution (1% NaCl, 6% dextran T-500) and left to separate for 60 min at 4° C. While most of the dense erythrocytes sink into the dextran layer, the lighter blood fractions remain in the upper layer which is then removed and centrifuged at 1600 rpm (4° C., 10 min) to concentrate the leukocytes. The plasma supernatant is discarded, the pellet is resuspended in 10 ml of a wash buffer (10% CaCl2.2H2O p.a.; 0.1% anhydrous d-glucose; 0.2% MgCl2.6H2O; 0.04% KCl; 1.75% TRIS p.a.; with the pH adjusted to 7.6 with 1N HCl). After centrifugation at 1400 rpm (4° C., 10 min) and removal of the supernatant the resulting pellet is resuspended in 10 ml of a hypotonic lysis buffer (0.17% NH4Cl; 0.2% TRIS; pH 7.2) and gently shaken for 5 min at room temperature to destroy remaining erythrocytes. The suspension is submitted to another centrifugation at 1400 rpm (4° C., 5 min). The pellet is resuspended in 10 ml of wash buffer and then centrifuged at 1400 rpm (4° C., 15 min). The resulting pellet which now mainly contains neutrophile granulocytes is resuspended in 2 ml of TRIS buffer (1.75% TRIS p.a., 0.9% NaCl, pH 7.4), tested for vitality, quantified and then diluted to a cell concentration of 4500 cells/ml with TRIS buffer.
Cell vitality test: 50 μl of cell suspension and 10 μl of trypan blue solution (0.4%) (Sigma Chemical Co. Steinheim, Germany) are mixed on a glass object carrier and examined with a light microscope at 1000 fold magnification. Dead cells appear larger and darker due to absorption of trypan blue. The vitality of the cells must be >95%.
Determination of cell concentration: 10 μl of granulocyte cell suspension are dyed using 990 μl aqueous TURKS solution (Merck) and quantified in a “Neubauer” chamber (Assistent, Germany).
Sample preparation: samples are dissolved in an appropriate amount of ethanol p.a. to be added to the test mixture resulting in screening concentrations of 50 μM for pure compounds and 20 μg/ml for crude. The commercially available 5-LOX inhibitor zileuton (Sequoia Research Products Ltd., UK) is used as a positive control at a concentration of 10 μM representing its IC50 in this test system.
Incubation procedure: The incubation mixture in a 96-well flat bottom microtitre plate (Bibby Sterilin, Staffordshire, UK) consists of 265 μl leukocyte suspension, with 75.5 μM CaCl2, 0.152 μM […] (ETYA) as an inhibitor of the 12-LOX pathway, 0.642 μM Ca ionophore A23187 and 4.43 μM arachidonic acid, the substrate of the 5-LOX pathway, along with 5 μl of each test solution or 5 μl of EtOH p.a. in control wells. After incubation for 10 min at 37° C. in darkness, the reaction is stopped by addition of 20 μl of 10% formic acid. The microtitre plate is centrifuged for 15 min at 1400 rpm to separate free LTB4 from cellular particles before the supernatant is diluted 40 fold in EIA buffer and applied to a competitive LTB4 EIA kit (Assay Designs Inc.).
LTB4 EIA: The plate is incubated for 2 hours at room temperature on an orbital shaker. […]

IL-6 and TNF-α = assay: Sow feeding trial, Postpartum Dysgalactia Syndrome, inflammation markers; assay type: in vivo; settings: sows, relative to untreated animals at allocation day
Protocol: Principle: Evaluation of the antiinflammatory activity of Larch sawdust in order to reduce the prevalence of Postpartum Dysgalactia Syndrome in sows under field conditions. IL-6 and TNF-α were analyzed as markers of inflammatory stress.
Materials and Methods: Sows with no clinical signs of disease were used from a farm of approximately 900 sows under production. Trial animals were sows of the same genotype (Dalland hybrids), chosen in terms of achieving homogenity regarding parity, bodyweight, previous production parameters (litter size, litter average bodyweight etc.) and previous health status. The farm was selected due to previous history of Post Partum Dysgalactia Syndrome occurrence. The sows were randomly allocated to a control group (n=5), a positive control group (n=5) and a larch sawdust (n=5) group. The whole trial period was 35 days beginning at 7 days prior to farrow until the day of weaning.
1% by weight of larch sawdust was added as an anti-inflammatory ingredient to sow feed (dry period and lactation feed). […] The raw materials were well accepted at an inclusion level of 1% by weight in the diet as it was shown by previous trials performed.
Thus, during the whole trial period the animals were fed as follows:
1. Control group (99% Basic diet and 1% Corn starch) 2. Larch group (99% Basic diet and 1% Larch) 3. Positive control group (99% Basic diet and 1% Corn starch)
Moreover, the animals of the positive control group were injected a single 2 ml dosage of an antiinflammatory drug (meloxicam) at the day of parturition, while the animals of all the other groups were injected with a single 2 ml dose of normal saline at the same day.
Blood samples were collected from all trial animals at allocation day (7 days before farrowing day) and at 24 and 72 hours post farrowing from all sows for inflammation markers evaluation (serum TNF-α, plasma IL-6). Additionally the milk production index for all sows was calculated, while production and health parameters of sows and their litters were recorded.
The cytokines results were expressed as n-fold increase of cytokine expression in relation to untreated animals at allocation day.

5-lipoxygenase (5-LOX) = settings: read-out: 5-LOX inhibitory activity IC50, cited from earlier work

IC50 [1]: 5 µM
IC50 ([1]; Homo sapiens): 10 µM and 1.2 µg/mL
Structure (SMILES): CC(c1cc2ccccc2s1)N(O)C(N)=O (centres unmarked) [Zileuton, reference compound]

Structure (SMILES): Cc1cnc(NC(=O)C2=C(O)c3ccccc3S(=O)(=O)N2C)s1 [Positive controls, meloxicam]
Relative expression of IL6 (IL-6 and TNF-α; 24 hours PP): 1.86 ± 0.92 n fold
Relative expression of TNFα (IL-6 and TNF-α; 24 hours PP): 0.87 ± 0.29 n fold
Relative expression of IL6 (IL-6 and TNF-α; 72 hours PP): 1.08 ± 0.78 n fold
Relative expression of TNFα (IL-6 and TNF-α; 72 hours PP): 0.98 ± 0.77 n fold

Structure (SMILES): CC(C)C1=CC2=CC[C@@H]3[C@](C)(CCC[C@@]3(C)C(=O)O)[C@H]2CC1 [abietic acid]
IC50 (5-lipoxygenase (5-LOX); Ulusu et al. 2002, isolated from cones of Abies nordmanniana ssp. equitraojani): 29.5 ± 1.29 µM
IC50 (5-lipoxygenase (5-LOX); known from the art): ~30 µM
